Laboratory results from publication PMC9898749, “Cryo-EM structure of the plant nitrate transporter AtCLCa reveals characteristics of the anion-binding site and the ATP-binding pocket” (The Journal of Biological Chemistry, 2022).

T1: AtCLCa (Arabidopsis thaliana, UniProt P92941)
T1 construct: gene CLC-A; HEK293F (BacMam); purified in GDN; homodimer; modelled residues 53-626, 636-737, 744-766
T1 sequence (P92941 1-775): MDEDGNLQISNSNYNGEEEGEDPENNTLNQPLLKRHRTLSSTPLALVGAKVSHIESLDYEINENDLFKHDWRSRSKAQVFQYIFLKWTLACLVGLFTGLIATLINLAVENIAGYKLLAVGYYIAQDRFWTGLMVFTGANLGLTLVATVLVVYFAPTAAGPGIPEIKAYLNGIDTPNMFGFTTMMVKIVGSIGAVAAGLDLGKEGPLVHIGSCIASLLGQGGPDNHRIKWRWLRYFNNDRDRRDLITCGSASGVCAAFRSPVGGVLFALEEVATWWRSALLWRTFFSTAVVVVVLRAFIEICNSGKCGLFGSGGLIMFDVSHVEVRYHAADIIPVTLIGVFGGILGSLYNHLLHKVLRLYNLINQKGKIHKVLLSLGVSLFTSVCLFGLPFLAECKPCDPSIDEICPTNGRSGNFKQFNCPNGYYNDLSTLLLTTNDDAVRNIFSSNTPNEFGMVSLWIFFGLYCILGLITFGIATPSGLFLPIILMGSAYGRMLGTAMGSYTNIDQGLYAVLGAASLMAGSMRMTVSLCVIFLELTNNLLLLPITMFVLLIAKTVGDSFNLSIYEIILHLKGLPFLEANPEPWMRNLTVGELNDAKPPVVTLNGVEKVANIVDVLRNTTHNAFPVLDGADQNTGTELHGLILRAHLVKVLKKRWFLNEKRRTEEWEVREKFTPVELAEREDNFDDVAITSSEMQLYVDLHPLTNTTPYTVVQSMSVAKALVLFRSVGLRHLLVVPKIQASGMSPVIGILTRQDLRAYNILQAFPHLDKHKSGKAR


Legend:
AtCLCa = target: T1, AtCLCa; assay: cryo-EM structure, […] Å; format: binding; conditions: 150 mM NaNO3; GDN detergent; pH 7.5; three anion sites (external, central, internal) in transport pathway; identity assigned from buffer; nitrates placed by docking overlapping EM densities
[1] = target: the molecule itself; assay: cryo-EM structure; AtCLCa 4.2 mg/ml in 20 mM Hepes pH 7.5, 150 mM NaNO3, 0.06% GDN; endogenous Mg2+-ATP bound; C2 symmetry imposed; 2.8 Å

| Molecule | cryo-EM structure, 2.8 Å (AtCLCa) | stoichiometry N [1] |
| --- | --- | --- |
| O=[N+]([O-])O [nitrate] | The ions are most likely nitrate because we purified the protein in a buffer |  |
| Arabidopsis thaliana CLCa (natural protein, UniProt P92941 1-775, looked up, AtCLCa, Arabidopsis thaliana chloride channel protein CLC-a, nitrate/proton antiporter; NCBI NP_198905.1; full length (residues 1-775; modelled residues 53-626, 636-737, 744-766); A C-terminal 3C cleavage site stands between the protein and the strep tag; Copurified with endogenous Mg2+-ATP; purified in 150 mM sodium nitrate; also called AtCLCa; source: HEK293F cells, BacMam system, purified …) MDEDGNLQISNSNYNGEEEGEDPENNTLNQPLLKRHRTLSSTPLALVGAKVSHIESLDYEINENDLFKHDWRSRSKAQVFQYIFLKWTLACLVGLFTGLIATLINLAVENIAGYKLLAVGYYIAQDRFWTGLMVFTGANLGLTLVATVLVVYFAPTAAGPGIPEIKAYLNGIDTPNMFGFTTMMVKIVGSIGAVAAGLDLGKEGPLVHIGSCIASLLGQGGPDNHRIKWRWLRYFNNDRDRRDLITCGSASGVCAAFRSPVGGVLFALEEVATWWRSALLWRTFFSTAVVVVVLRAFIEICNSGKCGLFGSGGLIMFDVSHVEVRYHAADIIPVTLIGVFGGILGSLYNHLLHKVLRLYNLINQKGKIHKVLLSLGVSLFTSVCLFGLPFLAECKPCDPSIDEICPTNGRSGNFKQFNCPNGYYNDLSTLLLTTNDDAVRNIFSSNTPNEFGMVSLWIFFGLYCILGLITFGIATPSGLFLPIILMGSAYGRMLGTAMGSYTNIDQGLYAVLGAASLMAGSMRMTVSLCVIFLELTNNLLLLPITMFVLLIAKTVGDSFNLSIYEIILHLKGLPFLEANPEPWMRNLTVGELNDAKPPVVTLNGVEKVANIVDVLRNTTHNAFPVLDGADQNTGTELHGLILRAHLVKVLKKRWFLNEKRRTEEWEVREKFTPVELAEREDNFDDVAITSSEMQLYVDLHPLTNTTPYTVVQSMSVAKALVLFRSVGLRHLLVVPKIQASGMSPVIGILTRQDLRAYNILQAFPHLDKHKSGKAR |  | 2 |
